Source: patent US20260185169A1, “MOLECULAR SIGNATURES TO PREDICT LONG-TERM LIVER FIBROSIS PROGRESSION” (THE BOARD OF REGENTS OF THE UNIVERSITY OF TEXAS SYSTEM, priority 2022, published 2026)

System: NASH patients with F1 to F3 fibrosis
Test: Histological fibrosis change after 1-year treatment in phase IIb CENTAUR trial
Format: in vivo, human
Details: cenicriviroc arm n=9, 1-year treatment

CCCCOCCOc1ccc(-c2ccc3c(c2)/C=C(/C(=O)Nc2ccc([S@@+]([O-])Cc4cncn4CCC)cc2)CCCN3CC(C)C)cc1 [Cenicriviroc]
patients with improvement of fibrosis in the year 1 biopsy: 4 patients
